Test [1] addresses T1, GluE1αA wildtype receptor (Trichoplax adhaerens, UniProt B3SAW0).
T1 sequence (B3SAW0 1-341): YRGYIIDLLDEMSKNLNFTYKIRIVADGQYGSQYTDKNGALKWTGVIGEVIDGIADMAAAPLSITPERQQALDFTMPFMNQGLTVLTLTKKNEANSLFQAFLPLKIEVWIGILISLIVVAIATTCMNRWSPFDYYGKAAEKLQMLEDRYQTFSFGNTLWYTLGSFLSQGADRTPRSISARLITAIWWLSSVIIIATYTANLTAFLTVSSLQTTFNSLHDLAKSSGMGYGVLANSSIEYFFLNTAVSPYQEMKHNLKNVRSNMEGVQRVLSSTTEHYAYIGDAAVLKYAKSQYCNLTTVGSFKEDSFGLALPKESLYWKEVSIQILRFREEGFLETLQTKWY
Particulars: wt. The text has this: (§1) The cDNA of the T. adhaerens GluE1αA receptor was cloned into the mammalian expression vector pIRES2-EGFP, using a 5’ nested primer that inserted a mammalian consensus Kozak sequence of […] (Supplementary Table 5). Several mutants/variants of this receptor where also prepared via site directed mutagenesis using standard procedures and primers listed in Supplementary Table 5. For electrophysiological comparisons, we commissioned GenScript (USA) to synthesize the cDNA of the human GluA2 […] receptor (NCBI accession number NP_001077088.2), which was cloned into the pIRES2-EGFP vector with a Kozak sequence flanking the start codon and restriction enzymes SalI and BamHI at the 5’ and 3’ ends of the cDNA, respectively. Receptor cDNAs in the various pIRES2 constructs were transfected into Chinese Hamster Ovary-K1 (CHO-K1; Sigma) cells cultured in Dulbecco’s Modified Eagle Medium Nutrient Mixture F-12 (DMEM/F12) supplemented with 10% Fetal Bovine Serum (FBS) and 1% penicillin-streptomycin at 37°C. Transfections were done with 2 μg of plasmid vector using the transfecting reagent PolyJet^TM (SignaGen Laboratories, USA) according to the manufacturer’s instructions and plated onto glass coverslips in 35 mm dishes the next day. Transfected cells were incubated at 28°C for 2 to 4 days, then coverslips were transferred to a new 60 mm dish with 5 mL of external recording solution. […] Agonists and pharmacological compounds used in this study were dissolved in corresponding external solutions. […] Patch pipettes were pulled using a P-1000 micropipette puller (Sutter, USA), from thick-walled borosilicate tubing (1.5 and 0.86 outer and inner diameter, respectively), to a resistance of between 1 and 6 megaohms.

Test [2] relates to GluE1αA D646A variant.
From the text: as §1

Where two headings read alike, the source gives them in different places.

As for `NCCCNCCCCNCCCN` [spermine], the “normalized current elicited by 3 mM glycine with co-applied spermine, Avg” value is on record as 0.8673 in test [1] (spermine 200 µM extracellular), 0.8213 in test [1] (spermine 1000 µM extracellular), 0.8603 in test [2] (spermine 200 µM extracellular) and 0.5979 in test [2] (spermine 1000 µM extracellular). Further, in test [2] (200 µM extracellular spermine), the “reduction in peak inward current (percent block)” value turned out to be 14.0 ± 1.1%. Besides, in test [2] (1000 µM extracellular spermine), the “reduction in peak inward current” value stood at 40.2 ± 3.4%.

(Values after article PMC12226733, “Evolution of iGluR ligand specificity, polyamine regulation, and ion selectivity inferred from a placozoan epsilon receptor” (Communications Biology, 2025).)
